Data from ChEMBL document CHEMBL2163242, “Development of anti-coxsackievirus agents targeting 3C protease” (Bioorg Med Chem Lett, 2012).

What was measured:
Genome polyprotein = Genome polyprotein (Coxsackievirus B3 (strain Nancy), UniProt P03313); assay: Inhibition of Coxsackievirus B3 protease 3c using NMA-EALFQGPPVK-DNP as substrate incubated for 5 mins prior to substrate addition measured after 1 hr by FRET assay
Coxsackievirus B3 [1] = assay: Antiviral activity against Coxsackievirus B3 H3 infected in HeLa-UVM cells assessed as host cell viability at 1 uM after 6 to 24 hrs by CCK8 assay; assay type: functional
Coxsackievirus B3 [2] = assay: Antiviral activity against Coxsackievirus B3 H3 infected in HeLa-UVM cells assessed as host cell viability at 0.5 uM after 6 to 24 hrs by CCK8 assay; assay type: functional
[3] = Aqueous solubility of the compound by HPLC analysis; assay type: physicochemical; conditions: buffer
[4] = target: Genome polyprotein (Coxsackievirus B3 (strain Nancy)) (UniProt P03313); assay: Inhibition of Coxsackievirus B3 protease 3c using NMA-EALFQGPPVK-DNP as substrate at 10 uM incubated for 5 mins prior to substrate addition measured after 1 hr by FRET assay
Chain of Genome polyprotein (Coxsackievirus B3 (strain Nancy)) (P03313 whole entry): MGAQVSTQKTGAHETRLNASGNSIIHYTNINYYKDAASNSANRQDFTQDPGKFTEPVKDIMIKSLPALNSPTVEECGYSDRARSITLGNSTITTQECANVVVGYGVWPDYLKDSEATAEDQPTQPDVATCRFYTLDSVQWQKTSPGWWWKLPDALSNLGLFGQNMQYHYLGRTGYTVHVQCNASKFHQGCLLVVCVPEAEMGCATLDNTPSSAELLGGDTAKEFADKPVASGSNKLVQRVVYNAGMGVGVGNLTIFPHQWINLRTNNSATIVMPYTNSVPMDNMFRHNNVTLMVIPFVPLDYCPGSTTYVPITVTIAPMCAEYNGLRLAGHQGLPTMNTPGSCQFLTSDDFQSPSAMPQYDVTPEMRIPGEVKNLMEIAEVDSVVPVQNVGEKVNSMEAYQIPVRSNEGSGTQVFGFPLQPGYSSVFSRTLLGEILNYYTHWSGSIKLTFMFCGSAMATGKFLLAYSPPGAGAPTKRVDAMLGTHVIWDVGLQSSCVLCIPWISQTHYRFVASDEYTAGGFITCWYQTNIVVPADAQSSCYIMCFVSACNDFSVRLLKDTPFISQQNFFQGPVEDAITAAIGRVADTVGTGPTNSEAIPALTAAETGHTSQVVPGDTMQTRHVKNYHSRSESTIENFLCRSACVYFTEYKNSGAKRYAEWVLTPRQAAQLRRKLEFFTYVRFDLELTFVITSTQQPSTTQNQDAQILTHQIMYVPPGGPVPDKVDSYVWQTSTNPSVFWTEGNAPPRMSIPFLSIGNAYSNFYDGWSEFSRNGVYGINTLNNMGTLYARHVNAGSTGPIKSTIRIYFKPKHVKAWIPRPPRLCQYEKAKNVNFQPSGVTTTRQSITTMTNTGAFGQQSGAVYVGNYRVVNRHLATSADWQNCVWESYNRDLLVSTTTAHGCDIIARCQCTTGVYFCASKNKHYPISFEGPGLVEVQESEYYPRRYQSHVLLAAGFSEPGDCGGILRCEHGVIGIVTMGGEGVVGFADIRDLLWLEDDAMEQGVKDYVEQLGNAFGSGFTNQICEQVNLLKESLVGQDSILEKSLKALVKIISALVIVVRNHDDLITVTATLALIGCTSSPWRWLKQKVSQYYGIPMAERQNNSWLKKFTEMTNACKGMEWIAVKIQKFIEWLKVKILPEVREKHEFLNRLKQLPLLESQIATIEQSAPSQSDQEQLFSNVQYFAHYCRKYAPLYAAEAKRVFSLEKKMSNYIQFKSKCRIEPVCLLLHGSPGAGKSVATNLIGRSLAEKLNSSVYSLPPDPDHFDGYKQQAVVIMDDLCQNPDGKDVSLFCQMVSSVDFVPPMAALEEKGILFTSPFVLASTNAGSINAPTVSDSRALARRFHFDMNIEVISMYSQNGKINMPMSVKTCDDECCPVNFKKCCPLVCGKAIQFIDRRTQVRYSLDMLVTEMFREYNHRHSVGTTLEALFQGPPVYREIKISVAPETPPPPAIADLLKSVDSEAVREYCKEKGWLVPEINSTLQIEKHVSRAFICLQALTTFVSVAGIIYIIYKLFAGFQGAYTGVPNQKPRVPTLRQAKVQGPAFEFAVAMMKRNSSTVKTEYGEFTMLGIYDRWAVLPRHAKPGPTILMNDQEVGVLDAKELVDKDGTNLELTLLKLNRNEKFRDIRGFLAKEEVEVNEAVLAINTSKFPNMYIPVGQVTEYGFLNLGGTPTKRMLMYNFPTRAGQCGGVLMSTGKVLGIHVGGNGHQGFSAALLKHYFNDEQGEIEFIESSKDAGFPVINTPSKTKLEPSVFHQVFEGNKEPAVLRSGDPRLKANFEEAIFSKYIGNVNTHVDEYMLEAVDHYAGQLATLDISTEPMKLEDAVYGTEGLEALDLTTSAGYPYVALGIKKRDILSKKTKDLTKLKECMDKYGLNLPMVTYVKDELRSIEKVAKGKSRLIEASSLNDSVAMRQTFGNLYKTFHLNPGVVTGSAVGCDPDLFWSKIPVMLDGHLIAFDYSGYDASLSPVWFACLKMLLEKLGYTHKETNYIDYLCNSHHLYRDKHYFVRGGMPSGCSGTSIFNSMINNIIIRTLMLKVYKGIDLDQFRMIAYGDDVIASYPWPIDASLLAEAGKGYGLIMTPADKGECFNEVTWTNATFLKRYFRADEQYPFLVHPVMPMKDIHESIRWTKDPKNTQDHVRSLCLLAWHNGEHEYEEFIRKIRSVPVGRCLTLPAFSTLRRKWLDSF

Chain of Genome polyprotein (P03313 1541-1723 limits assumed): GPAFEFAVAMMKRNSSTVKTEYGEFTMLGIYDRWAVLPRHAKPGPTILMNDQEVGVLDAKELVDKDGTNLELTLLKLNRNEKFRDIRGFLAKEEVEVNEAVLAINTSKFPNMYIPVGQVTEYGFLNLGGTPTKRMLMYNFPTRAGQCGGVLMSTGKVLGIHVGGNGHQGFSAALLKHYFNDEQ

Question: Which IC50 (Genome polyprotein) does the source give for `Cc1cc(C(=O)N[C@H](C(=O)N[C@@H](Cc2ccc(F)cc2)C(=O)N[C@@H](/C=C/C(=O)OCc2cn3cccc(C)c3n2)CCC(N)=O)C(C)C)no1` here?
Answer: 0.17 µM

Question: And the Activity (Coxsackievirus B3 [1])?
Answer: 50%

Question: Which results are given for `Cc1cc(C(=O)N[C@H](C(=O)N[C@@H](Cc2ccc(F)cc2)C(=O)N[C@@H](/C=C/C(=O)OCc2ccc3[nH]ncc3c2)CCC(N)=O)C(C)C)no1`?
Answer: IC50 (Genome polyprotein): 0.18 µM; Activity (Coxsackievirus B3 [1]): 50%

Question: Which Activity (Coxsackievirus B3 [2]) does the source give for `Cc1cc(C(=O)N[C@H](C(=O)N[C@@H](Cc2ccc(F)cc2)C(=O)N[C@@H](/C=C/C(=O)OCc2cnc3ccccc3c2)CCC(N)=O)C(C)C)no1` here?
Answer: 50%

Question: And the IC50 (Genome polyprotein)?
Answer: 0.25 µM

Question: What about the Activity (Coxsackievirus B3 [1]) of the same compound?
Answer: 50%

Question: What does the source list for `Cc1cc(C(=O)N[C@H](C(=O)N[C@@H](Cc2ccc(F)cc2)C(=O)N[C@@H](/C=C/C(=O)OCc2nc(-c3ccncc3)no2)CCC(N)=O)C(C)C)no1`?
Answer: IC50 (Genome polyprotein): 0.65 µM; Activity (Coxsackievirus B3 [1]): 50%

Question: Which IC50 (Genome polyprotein) does the source give for `Cc1cc(C(=O)N[C@H](C(=O)N[C@@H](Cc2ccc(F)cc2)C(=O)N[C@@H](/C=C/C(=O)OCc2ccc3cnccc3c2)CCC(N)=O)C(C)C)no1` here?
Answer: 0.24 µM

Question: And the Activity (Coxsackievirus B3 [1])?
Answer: 50%

Question: Which results are given for `Cc1cc(C(=O)N[C@H](C(=O)N[C@@H](Cc2ccc(F)cc2)C(=O)N[C@@H](/C=C/C(=O)OCc2nc3ccccc3[nH]2)CCC(N)=O)C(C)C)no1`?
Answer: IC50 (Genome polyprotein): 0.24 µM; Activity (Coxsackievirus B3 [1]): 50%

Question: With `Cc1cc(C(=O)N[C@H](C(=O)N[C@@H](Cc2ccc(F)cc2)C(=O)N[C@@H](/C=C/C(=O)OCc2ccc3ccccc3c2)CCC(N)=O)C(C)C)no1` as the compound, how does the IC50 (Genome polyprotein) read?
Answer: 0.41 µM

Question: What about the Activity (Coxsackievirus B3 [1]) of the same compound?
Answer: 50%

Question: Which solubility [3] does the source give for `Cc1cc(C(=O)N[C@H](C(=O)N[C@@H](Cc2ccc(F)cc2)C(=O)N[C@@H](/C=C/C(=O)OCc2ccc3[nH]ncc3c2)CCC(N)=O)C(C)C)no1.Cl` here?
Answer: soluble

Question: Which IC50 (Genome polyprotein) does the source give for `Cc1cc(C(=O)N[C@H](C(=O)N[C@@H](Cc2ccc(F)cc2)C(=O)N[C@@H](/C=C/C(=O)OCc2nc3cc(Cl)ccc3[nH]2)CCC(N)=O)C(C)C)no1` here?
Answer: 0.65 µM

Question: And the Activity (Coxsackievirus B3 [1])?
Answer: 50%

Question: What does the source list for `Cc1cc(C(=O)N[C@H](C(=O)N[C@@H](Cc2ccc(F)cc2)C(=O)N[C@@H](/C=C/C(=O)OCc2cn3c(C)cccc3n2)CCC(N)=O)C(C)C)no1`?
Answer: IC50 (Genome polyprotein): 0.16 µM; Activity (Coxsackievirus B3 [1]): 50%

Question: For `Cc1cc(C(=O)N[C@H](C(=O)N[C@@H](Cc2ccc(F)cc2)C(=O)N[C@@H](/C=C/C(=O)OCc2ccc3nc[nH]c3c2)CCC(N)=O)C(C)C)no1`, which IC50 (Genome polyprotein) is on record?
Answer: 0.47 µM

Question: And the Activity (Coxsackievirus B3 [1])?
Answer: 50%

Question: Which IC50 (Genome polyprotein) does the source give for `Cc1cc(C(=O)N[C@H](C(=O)N[C@@H](Cc2ccc(F)cc2)C(=O)N[C@@H](/C=C/C(=O)OCc2cccc3cnccc23)CCC(N)=O)C(C)C)no1` here?
Answer: 0.27 µM

Question: What about the Activity (Coxsackievirus B3 [1]) of the same compound?
Answer: 50%

Question: Which Activity (Coxsackievirus B3 [2]) does the source give for `Cc1cc(C(=O)N[C@H](C(=O)N[C@@H](Cc2ccc(F)cc2)C(=O)N[C@@H](/C=C/C(=O)OCc2ccnc3ccccc23)CCC(N)=O)C(C)C)no1` here?
Answer: 50%

Question: What about the IC50 (Genome polyprotein) of the same compound?
Answer: 0.13 µM

Question: What about the Activity (Coxsackievirus B3 [1]) of the same compound?
Answer: 50%

Question: With `Cc1cc(C(=O)N[C@H](C(=O)N[C@@H](Cc2ccc(F)cc2)C(=O)N[C@@H](/C=C/C(=O)OCc2ccc3cn[nH]c3c2)CCC(N)=O)C(C)C)no1` as the compound, how does the IC50 (Genome polyprotein) read?
Answer: 0.39 µM

Question: And the Activity (Coxsackievirus B3 [1])?
Answer: 50%

Question: For `Cc1cc(C(=O)N[C@H](C(=O)N[C@@H](Cc2ccc(F)cc2)C(=O)O)C(C)C)no1`, which inhibition [4] is on record?
Answer: 33.5%

Question: With `Cc1cc(C(=O)N[C@H](C(=O)N[C@@H](Cc2ccc(F)cc2)C(=O)N[C@@H](/C=C/C(=O)OCc2cccc3ncccc23)CCC(N)=O)C(C)C)no1` as the compound, how does the IC50 (Genome polyprotein) read?
Answer: 0.28 µM

Question: What about the Activity (Coxsackievirus B3 [1]) of the same compound?
Answer: 50%
